The source of these data is patent US11072581B2, “N-acyl-arylsulfonamide derivatives as aminoacyl-tRNA synthetase inhibitors” (Oxford Drug Design Limited, priority 2015, dated 2021).

Read-outs that look alike come from different tables or passages of the source.

What is called melting point is the temperature, or range, at which the solid turns liquid. As a reminder, the IC50 is the concentration needed to halve the response being measured.

The target in data set [1] is T1, EcoVRS (valyl-tRNA synthetase from Escherichia coli) (Escherichia coli, UniProt P07118).
T1 construct: made in house; host or cells: Escherichia coli M15
Kind of data set: aaRS aminoacylation assay (ATP consumption), EcoVRS. In kind it is biochemical. To be noted: i.a. = inactive at a concentration below 50 uM. How it is done: (§1) The compounds have been tested for antibacterial activity in vitro as aminoacyl-tRNA synthetases (aaRS) inhibitors following the following process.
(§2) Leucyl-, valyl- and isoleucyl-tRNA synthetases (LRS, VRS and IRS, respectively) from Escherichia coli (Eco) and Staphylococcus aureus (Sau).
(§3) Escherichia coli M15 cells transformed with plasmid pQE-60, or pQE-70, containing the open-reading frame sequence of one targeted aaRS were induced with 1 mM IPTG (Isopropyl β-D-1-thiogalactopyranoside) for 3 h at 37° C. Bacterial cells were harvested and lysed with 20 mM NaH2PO4 (pH 8.0), 200 mM NaCl, 10 mM imidazole and protease inhibitor cocktail (Roche). Pathogenic aaRS was purified by nickel affinity standard chromatography. Protein concentration was determined by spectrophotometry.
(§4) tRNA^Leu, tRNA^Val and tRNA^Ile from E. coli and S. aureus were transcribed in vitro for 4 h at 37° C. using T7 RNA polymerase. Transcription reaction contained 40 mM Tris-HCl (pH 8.0), 22 mM MgCl2, 1 mM spermidine, 5 mM DTT, 0.01% Triton X-100, 4 mM GTP, 4 mM ATP, 4 mM UTP, 4 mM CTP, 16 mM GMP, […] T7 RNA polymerase and 150 μg BstNI digested plasmid. Once finished, the reaction was applied on a 6% polyacrylamide-8 M urea denaturing gel to purify the transcribed tRNA and discard any impurities. Purified tRNA was quantified with Nanodrop 2000 (Thermo Scientific).
(§5) The aminoacylation reaction catalyzed by aminoacyl-tRNA synthetases (aaRS) takes place in two steps. In the first step, aaRS activates its cognate amino acid with ATP; and in the second step the activated amino acid is loaded to its corresponding tRNA. This reaction can be summarized as follows: ARS+aa+ATP=ARS-aa-AMP+PPi ARS-aa-AMP+tRNA=aa-tRNA+AMP+ARS [2] (ARS, Aminoacyl-tRNA synthetase; aa, amino acid; ARS-aa-AMP, enzyme-bound to aminoacyl-adenylate; aa-tRNA, aminoacyl-tRNA).
(§6) The activity of the pathogenic aaRSs was monitored by measuring the ATP consumption rate, since this consumption is directly proportional to the activity of the aaRS. If the tested compound, at a single point concentration of 50 μM, is inhibiting the aminoacylation reaction, there is a decrease in the ATP consumption, compared to the control reaction without compound, allowing the calculation of an inhibition ratio.
(§7) When the inhibition ratio for a given compound was above 80%, IC50 determination was performed with the same enzymatic assay (using the commercial kit Kinase RR from BioThema AB, Sweden) in the presence of serial dilutions of inhibitor. Known inhibitors of LRS, VRS or IRS were used as a positive control of the assay. The IC50 was calculated based on nonlinear regression analysis.

For data set [2], the target named is T2, SauLRS (leucyl-tRNA synthetase from Staphylococcus aureus) (Staphylococcus aureus, UniProt Q2FXH2).
T2 construct: made in house; host or cells: Escherichia coli M15
T2 sequence (Q2FXH2 1-805): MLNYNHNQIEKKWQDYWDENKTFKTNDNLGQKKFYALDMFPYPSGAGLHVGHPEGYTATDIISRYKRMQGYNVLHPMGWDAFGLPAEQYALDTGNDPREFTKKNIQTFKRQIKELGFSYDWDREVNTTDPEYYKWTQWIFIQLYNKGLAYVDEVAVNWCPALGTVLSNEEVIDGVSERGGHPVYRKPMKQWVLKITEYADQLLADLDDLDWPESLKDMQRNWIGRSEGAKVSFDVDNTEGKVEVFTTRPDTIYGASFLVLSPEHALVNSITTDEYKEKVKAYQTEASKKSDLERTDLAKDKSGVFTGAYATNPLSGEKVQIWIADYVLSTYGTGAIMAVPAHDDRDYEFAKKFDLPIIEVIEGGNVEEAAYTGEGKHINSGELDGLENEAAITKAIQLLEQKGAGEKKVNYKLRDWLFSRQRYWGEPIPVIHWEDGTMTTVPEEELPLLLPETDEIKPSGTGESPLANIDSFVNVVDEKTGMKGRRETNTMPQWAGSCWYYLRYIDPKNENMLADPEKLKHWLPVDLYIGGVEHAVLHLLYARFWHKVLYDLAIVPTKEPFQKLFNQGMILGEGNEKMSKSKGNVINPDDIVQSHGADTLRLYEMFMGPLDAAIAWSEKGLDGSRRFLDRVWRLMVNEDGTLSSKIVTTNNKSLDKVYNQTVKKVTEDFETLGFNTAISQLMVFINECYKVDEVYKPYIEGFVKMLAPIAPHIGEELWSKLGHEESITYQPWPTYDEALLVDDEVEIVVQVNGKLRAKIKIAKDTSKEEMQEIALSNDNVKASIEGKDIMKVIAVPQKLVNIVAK
The data set is described as follows: aaRS aminoacylation assay (ATP consumption), SauLRS. In kind it is biochemical. The protocol: as §1, §2, §3, §4, §5, §6, §7

Data set [3] deals with T3, EcoLRS (leucyl-tRNA synthetase from Escherichia coli) (Escherichia coli, UniProt P07813).
T3 construct: made in house; host or cells: Escherichia coli M15
The data set is described as follows: aaRS aminoacylation assay (ATP consumption), EcoLRS. In kind it is biochemical. The protocol: as §1, §2, §3, §4, §5, §6, §7

The mark [4] stands for this setting: i.a. = inactive at a concentration below 50 uM.
Setting [5] is: i.a. = inactive at a concentration below 50 uM, read-out: IC50 SauLRS.
[6] abbreviates: i.a. = inactive at a concentration below 50 uM, read-out: IC50 EcoLRS.

T3 sequence (P07813 whole entry): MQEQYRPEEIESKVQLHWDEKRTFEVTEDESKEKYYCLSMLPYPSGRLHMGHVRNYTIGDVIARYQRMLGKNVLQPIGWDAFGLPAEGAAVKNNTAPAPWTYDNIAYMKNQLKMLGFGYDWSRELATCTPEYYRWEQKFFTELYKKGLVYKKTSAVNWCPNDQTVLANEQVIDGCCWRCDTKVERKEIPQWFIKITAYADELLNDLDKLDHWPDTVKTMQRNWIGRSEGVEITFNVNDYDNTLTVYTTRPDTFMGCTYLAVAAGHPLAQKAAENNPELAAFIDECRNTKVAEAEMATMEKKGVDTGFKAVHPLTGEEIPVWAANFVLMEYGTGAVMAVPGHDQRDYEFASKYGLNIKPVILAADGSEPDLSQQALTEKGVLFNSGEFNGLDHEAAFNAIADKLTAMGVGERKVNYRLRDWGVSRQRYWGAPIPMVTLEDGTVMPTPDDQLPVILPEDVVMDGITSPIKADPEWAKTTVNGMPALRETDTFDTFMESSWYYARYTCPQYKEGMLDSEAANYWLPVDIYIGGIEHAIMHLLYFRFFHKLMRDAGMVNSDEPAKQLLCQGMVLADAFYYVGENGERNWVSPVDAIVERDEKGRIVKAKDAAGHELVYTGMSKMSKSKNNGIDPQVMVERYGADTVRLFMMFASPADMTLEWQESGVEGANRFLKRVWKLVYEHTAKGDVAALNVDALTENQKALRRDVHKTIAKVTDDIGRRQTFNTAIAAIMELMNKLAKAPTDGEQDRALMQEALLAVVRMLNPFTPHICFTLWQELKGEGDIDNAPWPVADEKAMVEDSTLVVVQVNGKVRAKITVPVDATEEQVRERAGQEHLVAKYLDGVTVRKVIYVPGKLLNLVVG
T1 sequence (P07118 whole entry): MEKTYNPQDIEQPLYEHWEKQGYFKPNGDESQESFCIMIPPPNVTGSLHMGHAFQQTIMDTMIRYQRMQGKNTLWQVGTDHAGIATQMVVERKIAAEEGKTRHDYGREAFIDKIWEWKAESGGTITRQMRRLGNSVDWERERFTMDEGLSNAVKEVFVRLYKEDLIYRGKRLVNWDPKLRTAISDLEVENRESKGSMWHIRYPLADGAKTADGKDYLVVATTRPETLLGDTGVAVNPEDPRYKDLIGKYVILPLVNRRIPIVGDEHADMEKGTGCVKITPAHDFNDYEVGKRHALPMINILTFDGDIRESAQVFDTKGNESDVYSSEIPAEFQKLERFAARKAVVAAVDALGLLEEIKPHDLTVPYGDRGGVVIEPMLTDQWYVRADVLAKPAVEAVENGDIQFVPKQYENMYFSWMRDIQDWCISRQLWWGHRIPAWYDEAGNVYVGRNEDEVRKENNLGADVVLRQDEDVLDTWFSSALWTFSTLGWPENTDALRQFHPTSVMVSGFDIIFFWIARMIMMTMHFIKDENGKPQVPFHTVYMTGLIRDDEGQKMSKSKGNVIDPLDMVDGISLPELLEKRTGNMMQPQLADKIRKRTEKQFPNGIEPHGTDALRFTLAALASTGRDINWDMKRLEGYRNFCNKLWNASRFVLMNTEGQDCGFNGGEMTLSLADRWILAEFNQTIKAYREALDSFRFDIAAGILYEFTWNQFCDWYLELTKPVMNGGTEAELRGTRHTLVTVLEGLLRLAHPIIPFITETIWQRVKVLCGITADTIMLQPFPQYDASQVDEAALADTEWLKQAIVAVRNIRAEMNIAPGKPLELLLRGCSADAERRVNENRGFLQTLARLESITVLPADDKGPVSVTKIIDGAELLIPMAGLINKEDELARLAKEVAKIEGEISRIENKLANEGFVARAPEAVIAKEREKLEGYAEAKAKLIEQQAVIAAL

In turn, `CC[C@H](C)[C@H](N)C(=O)NS(=O)(=O)c1ccc2ccccc2c1` [Compound 5.15] showed a melting point of 229.7 °C. In addition, in data set [1], the “IC50 EcoVRS” value is given as “i.a”. In addition, the “IC50 SauLRS” value in data set [2] (setting [4]) is “i.a”. The “IC50 EcoLRS” value in data set [3] (setting [4]) was “i.a”.

`COc1ccc2cc(S(=O)(=O)NC(=O)[C@@H](N)CC(C)C)ccc2c1` [Compound 5.17] came in with a melting point of 230 to 232 °C. For the same molecule, the “IC50 EcoVRS” value in data set [1] is listed as “i.a”. Also, the IC50 in data set [2] (setting [5]) was found to be 2 µM. The molecule also yielded an IC50 in data set [3] of 0.92 µM.

`CC(C)C[C@H](N)C(=O)NS(=O)(=O)c1cccc2ccncc12` [Compound 5.21] showed a melting point of 55 to 57 °C. In data set [1], the “IC50 EcoVRS” value is “i.a”. In addition, the IC50 in data set [2] (setting [5]) is 3.42 µM. In addition, the IC50 in data set [3] came out at 0.483 µM.

With `CC(C)C[C@H](N)C(=O)NS(=O)(=O)c1cccc2c1OCCC2` [Compound 5.25], the melting point was 165 °C (dec.). In addition, the “IC50 EcoVRS” value in data set [1] is listed as “i.a”. The IC50 in data set [2] (setting [5]) was determined as 14.1 µM. Besides, the concentration for half-maximal inhibition (IC50) in data set [3] was found to be 0.149 µM.

`Cc1cc(-c2cccc(S(=O)(=O)NC(=O)[C@@H](N)CC3CC3)c2)nc(N)n1` [Compound 5.30]: the melting point is > 192 °C (dec.). Moreover, the “IC50 EcoVRS” value in data set [1] is reported as “i.a”. Further, the “IC50 SauLRS” value in data set [2] (setting [4]) is recorded as “i.a”. In data set [3], this molecule returned an IC50 of 14 µM.

On to `Cc1cc(-c2cccc(S(=O)(=O)NC(=O)[C@@H](N)C3CC3)c2)nc(N)n1` [Compound 5.33], for which the melting point is 158 °C (dec.). In addition, the “IC50 EcoVRS” value in data set [1] is “i.a”. The “IC50 SauLRS” value in data set [2] (setting [4]) is “i.a”. In addition, the “% at single point concentration (inhibition ratio), EcoLRS” value in data set [3] (@50 μM compound) was 40%@50.

Consider `Cc1cc(-c2cccc(S(=O)(=O)NC(=O)[C@@H](N)CC(C)C)c2)nc(N)n1` [Compound 5.35, (S)-2-amino-N-((3-(2-amino-6-methylpyrimidin-4-yl)phenyl)sulfonyl)-4-methylpentanamide], for which the melting point is 241 to 242 °C (dec.). Besides, the “IC50 EcoVRS” value in data set [1] is recorded as “i.a”. Further, the IC50 in data set [2] (setting [5]) turned out to be 4.34 µM. The IC50 in data set [3] stood at 0.014 µM.

Consider `COc1cc(-c2cccc(S(=O)(=O)NC(=O)[C@@H](N)CC(C)C)c2)nc(N)n1` [Compound 5.36], for which the melting point was 87 to 88 °C (dec.). For the same molecule, the “IC50 EcoVRS” value in data set [1] is reported as “i.a”. Further, in data set [2] (setting [5]), the IC50 is 3 µM. In data set [3], this molecule displayed a concentration for half-maximal inhibition (IC50) of 0.012 µM.

Consider `CC(C)C[C@H](N)C(=O)NS(=O)(=O)c1cccc(-c2ccnc(N)n2)c1` [Compound 5.37], for which the melting point was 224 to 226 °C (dec.). Further, the “IC50 EcoVRS” value in data set [1] is recorded as “i.a”. Besides, in data set [2] (setting [5]), the IC50 is 2.18 µM. The IC50 in data set [3] (setting [6]) stood at 0.054 µM.

Turning to `CC(C)C[C@H](N)C(=O)NS(=O)(=O)c1cccc(-c2nc(N)nc3nc[nH]c23)c1` [Compound 5.38], the melting point was 117 °C (dec.). In addition, the “IC50 EcoVRS” value in data set [1] is given as “i.a”. Besides, the IC50 in data set [2] (setting [5]) turned out to be 1.11 µM. It took 0.084 µM to reach half-maximal inhibition in data set [3] (IC50).

Regarding `Cc1cc(-c2cccc(S(=O)(=O)NC(=O)[C@@H](N)CC(C)C)c2)ncn1` [Compound 5.39], the melting point was determined as 246 °C. The “IC50 EcoVRS” value in data set [1] was “i.a”. For the same molecule, the 50% inhibitory concentration (IC50) in data set [2] (setting [5]) worked out at 2 µM. Also, in data set [3], 0.045 µM corresponded to half-maximal inhibition (IC50).

Take `CC[C@H](C)[C@H](N)C(=O)NS(=O)(=O)c1cccc(-c2cc(C)nc(N)n2)c1` [Compound 5.40]: the melting point worked out at 97 °C. Moreover, the “IC50 EcoVRS” value in data set [1] is reported as “i.a”. Further, the “IC50 SauLRS” value in data set [2] (setting [4]) was “i.a”. This molecule also came in with an IC50 in data set [3] of 21.8 µM.

For `CC(C)C[C@H](N)C(=O)NS(=O)(=O)c1cccc(-c2cc(-c3ccccc3)nc(N)n2)c1` [Compound 5.41], the melting point is 186 to 188 °C (dec.). Further, in data set [1], the “IC50 EcoVRS” value is on record as “i.a”. Further, the IC50 in data set [2] (setting [5]) stood at 3 µM. For the same molecule, the IC50 in data set [3] was 0.22 µM.

Consider `CC(C)C[C@H](N)C(=O)NS(=O)(=O)c1cccc(-c2ccncc2)c1` [Compound 5.42], for which the melting point is 151 °C (dec.). The “IC50 EcoVRS” value in data set [1] is “i.a”. In data set [2], this molecule had an IC50 of 0.81 µM. In data set [3] (setting [6]), the IC50 was 0.013 µM.

Turning to `CC(C)C[C@H](N)C(=O)NS(=O)(=O)c1cccc(-c2ccnc(N)c2)c1` [Compound 5.43], the melting point was 141 °C (dec.). Moreover, the “IC50 EcoVRS” value in data set [1] is “i.a”. In addition, in data set [2] (setting [5]), the IC50 came out at 0.33 µM. In data set [3], this molecule registered an IC50 of 0.002 µM.

In the case of `CC(C)C[C@H](N)C(=O)NS(=O)(=O)c1cccc(-c2cccc(N)n2)c1` [Compound 5.44], the melting point was 148 °C (dec.). Further, the “IC50 EcoVRS” value in data set [1] is recorded as “i.a”. Moreover, the IC50 in data set [2] (setting [5]) is 1.64 µM. Moreover, the IC50 in data set [3] was found to be 0.006 µM.

`CC(C)C[C@H](N)C(=O)NS(=O)(=O)c1cccc(-c2cc(N)nc(N)n2)c1` [Compound 5.45]: the melting point was 234 °C (dec.). Further, in data set [1], the “IC50 EcoVRS” value is listed as “i.a”. Besides, in data set [2] (setting [5]), the IC50 came out at 0.72 µM. The IC50 in data set [3] came to 0.02 µM.

With `CC(C)C[C@H](N)C(=O)NS(=O)(=O)c1cccc(-c2ccnc(Cl)n2)c1` [Compound 5.49], the melting point is 231 to 238 °C (dec.). Besides, in data set [1], the “IC50 EcoVRS” value is listed as “i.a”. Moreover, the IC50 in data set [2] (setting [5]) worked out at 6.23 µM. The molecule also came in with an IC50 in data set [3] of 0.064 µM.

In the case of `CC(C)C[C@H](N)C(=O)NS(=O)(=O)c1cccc(-c2ccnc(O)n2)c1` [Compound 5.50], the melting point is 191 to 221 °C (dec.). Also, in data set [1], the “IC50 EcoVRS” value was “i.a”. Besides, the IC50 in data set [2] (setting [5]) was found to be 13.9 µM. The molecule also gave an IC50 in data set [3] of 0.063 µM.
